In data set [1] the test system is Mycobacterium tuberculosis. Description: Antimycobacterial activity against Mycobacterium tuberculosis H37Rv after 6 days by MTT assay. In kind it is functional, organism-based. The following applies: 144 h.
A short description of data set [2]: Cytotoxicity against human MRC5 cells after 24 hrs. The data set is classed as cell-based.
Data set [3] in a line: Selectivity index, ratio of CC50 for human MRC5 cells to MIC for Mycobacterium tuberculosis H37Rv. The data set is classed as toxicity, cell-based. The following applies: read-out: Selectivity Index.

The record followed here is ChEMBL document CHEMBL3603838, “Guanidinium compounds with sub-micromolar activities against Mycobacterium tuberculosis. Synthesis, characterization and biological evaluations” (Bioorg Med Chem, 2015).

Converted amounts (≈) assume the structure as drawn.

On to `N=C(N)NCCc1cc2c(O)c(c1)Cc1cc(CCNC(=N)N)cc(c1O)Cc1cc(CCNC(=N)N)cc(c1O)Cc1cc(CCNC(=N)N)cc(c1O)C2`, for which, in data set [1], the MIC is 0.8 µM (≈ 0.612 µg/mL). For the same molecule, the CC50 at 24 h in data set [2] is above 256 µg/mL. Also, in data set [3], the selectivity ratio is above 256.

Take `N=C(N)NCCc1ccc(OCc2ccccc2)cc1`: in data set [1], 5900 nM corresponded to half-maximal inhibition (IC50) and 25 µM (≈ 6.73 µg/mL) was the least that counted as inhibitory (MIC). Further, the CC50 at 24 h in data set [2] turned out to be 26 µg/mL (≈ 96.5 µM). For the same molecule, the selectivity ratio in data set [3] was 2.6.

On to `N=C(N)NCCc1ccc(OCc2ccccc2COc2ccc(CCNC(=N)N)cc2)cc1.O=C(O)C(F)(F)F`, for which, in data set [1], the IC50 was 1500 nM and the MIC came to 6.2 µM. In data set [2], the CC50 at 24 h stood at 100 µg/mL. The selectivity ratio in data set [3] amounted to 24.

In data set [1], `N=C(N)NCCc1ccc(OCc2cccc(COc3ccc(CCNC(=N)N)cc3)c2)cc1.O=C(O)C(F)(F)F` yielded an IC50 of 700 nM and an MIC of 3.1 µM. The molecule also came in with a CC50 at 24 h in data set [2] of 34.5 µg/mL. Also, the selectivity ratio in data set [3] amounted to 16.

In data set [1], `N=C(N)NCCc1ccc(OCc2ccc(COc3ccc(CCNC(=N)N)cc3)cc2)cc1.O=C(O)C(F)(F)F` registered an IC50 of 800 nM and an MIC of 3.1 µM. The molecule further showed a CC50 at 24 h in data set [2] of 21 µg/mL. For the same molecule, the selectivity ratio in data set [3] amounted to 10.

In data set [1], `N=C(N)NCCc1ccc(OCc2cc(COc3ccc(CCNC(=N)N)cc3)cc(COc3ccc(CCNC(=N)N)cc3)c2)cc1.O=C(O)C(F)(F)F` had an IC50 of 350 nM and an MIC of 0.8 µM. This molecule returned a CC50 at 24 h in data set [2] of 39.5 µg/mL. The selectivity ratio in data set [3] turned out to be 49.

On to `N=C(N)NCCc1ccc(OCc2cc(COc3ccc(CCNC(=N)N)cc3)c(COc3ccc(CCNC(=N)N)cc3)cc2COc2ccc(CCNC(=N)N)cc2)cc1.O=C(O)C(F)(F)F`, for which, in data set [1], the IC50 was found to be 500 nM and the MIC amounted to 3.2 µM. The CC50 at 24 h in data set [2] turned out to be 49 µg/mL. Also, the selectivity ratio in data set [3] stood at 11.5.

For `N=C(N)NCCc1ccc(OCc2c(COc3ccc(CCNC(=N)N)cc3)c(COc3ccc(CCNC(=N)N)cc3)c(COc3ccc(CCNC(=N)N)cc3)c(COc3ccc(CCNC(=N)N)cc3)c2COc2ccc(CCNC(=N)N)cc2)cc1`, in data set [1], inhibition was half-maximal at 3800 nM (IC50) and inhibition of growth (MIC) required 12.5 µM (≈ 15.3 µg/mL). The same molecule had a CC50 at 24 h in data set [2] of 26 µg/mL (≈ 21.2 µM). The selectivity ratio in data set [3] came out at 1.

In data set [1], `O=C(O)c1cn(C2CC2)c2cc(N3CCNCC3)c(F)cc2c1=O` [CIPROFLOXACIN] registered an IC50 of 600 nM and an MIC of 2.5 µM (≈ 0.828 µg/mL).

The molecule `CC[C@@H](CO)NCCN[C@@H](CC)CO` [ETHAMBUTOL] registered an MIC in data set [1] of 9.8 µM (≈ 2 µg/mL). For the same molecule, the CC50 at 24 h in data set [2] was above 10 µg/mL. In addition, in data set [3], the selectivity ratio is above 5.

In data set [1], `NNC(=O)c1ccncc1` [ISONIAZID] returned an IC50 of 220 nM and an MIC of 0.6 µM (≈ 0.0823 µg/mL). The molecule also yielded a CC50 at 24 h in data set [2] above 10 µg/mL. The selectivity ratio in data set [3] was above 125.

On to `CN[C@@H]1[C@H](O[C@H]2[C@H](O[C@H]3[C@H](O)[C@@H](O)[C@H](N=C(N)N)[C@@H](O)[C@@H]3N=C(N)N)O[C@@H](C)[C@]2(O)C=O)O[C@@H](CO)[C@H](O)[C@H]1O` [STREPTOMYCIN], for which, in data set [1], it took 0.7 µM (≈ 0.407 µg/mL) to inhibit growth (MIC).
